Test results published in patent US20180140579A1, “SACUBITRIL AND VALSARTAN FOR TREATING METABOLIC DISEASE” (NOVARTIS AG, priority 2015, published 2018).
Where “and” joins values, the source holds several entries; their conditions need not be identical. Equal entries are not always repeated.

What was measured:
[1] = system: patients with mild-to-moderate hypertension and abdominal adiposity; assay: Hyperinsulinemic-euglycemic glucose clamp (insulin sensitivity), clinical study NCT01631864; format: in vivo, human; conditions: for Glucose infusion rate by body weight (Mbw), Day 56, adjusted mean / Insulin sensitivity index, Day 56, adjusted mean: Day 56 (week 8)
Protocol: (§1) At baseline and week 8, peripheral insulin sensitivity (hyperinsulinemic-euglycemic glucose clamp), abdominal subcutaneous adipose tissue lipolysis (microdialysis), whole-body lipolysis (glycerol tracer kinetics), energy expenditure and substrate oxidation (indirect calorimetry) were determined.
Patients were also stratified into 4 groups based on the baseline Homeostasis Model Assessment of Insulin Resistance (HOMA-IR) (<2.5 and ≥2.5) and use of statin therapy within 8 weeks prior to randomization.
The HEGC assessment was performed on Day −1 (baseline) and on Day 56 under fasting conditions. A dorsal hand vein was catheterized and kept warm for arterialized blood sampling and the contralateral arm was cathetered for the infusion of glucose and insulin. […] Blood samples to determine glucose levels during the HEGC were collected continuously (automated clamp) or at approximately 5-min intervals (manual clamp). The last 30 minutes (minutes 90-120) of the clamp were considered as the steady state period and the mean glucose infusion rate was calculated for this time period.
The insulin sensitivity index (SI) was calculated from steady-state glucose infusion rates, and plasma insulin and glucose concentrations at steady-state (SI: Glucose infusion rate/[plasma glucose×plasma insulin], μg/kg*min/[mmol/L*pmol/L]). Furthermore whole-body glucose disposal rate (M, mg/min) was calculated from the mean glucose infusion rate at steady state to assess peripheral insulin sensitivity. Finally, the metabolic clearance rate (MCR) was calculated from M-value and the mean blood glucose concentration (BG) at steady-state (MCR: M/BG, min*mmol). The glucose disposal rate was also expressed per unit of insulin at steady-state, calculated from M-value and plasma insulin concentrations (M/l, U/min).
Differences between treatments for change in SI from baseline were analyzed as above.

[2] = system: patients with mild-to-moderate hypertension and abdominal adiposity; assay: Abdominal subcutaneous adipose tissue microdialysis (local lipolysis); format: in vivo, human; conditions: for Glucose in adipose tissue microdialysate, adjusted geometric mean ratio Day 57 vs Day 1 / Lactate in adipose tissue microdialysate, adjusted geometric mean ratio Day 57 vs Day 1 / Glycerol (free) in adipose tissue microdialysate, adjusted geometric mean ratio Day 57 vs Day 1 / interstitial glycerol levels at week 8 (subcutaneous adipose tissue lipolysis at rest): at rest; for Glycerol (free) in adipose tissue microdialysate, adjusted geometric mean ratio Day 57 vs Day 1: 8 weeks treatment; for interstitial glycerol levels at week 8 (subcutaneous adipose tissue lipolysis at rest): p=0.003 between groups
Protocol: Assessment of lipolysis at rest was performed on Day 1 prior to first dosage and on Day 57. Abdominal subcutaneous adipose tissue lipolysis was assessed by microdialysis in the fasting condition. […] Microdialysate samples for measurement of the analytes were collected at 30 minutes and 45 minutes in the flow calibration phase. Glycerol (an indicator of local lipolysis), glucose, and lactate concentrations were measured in the microdialysate, reflecting the interstitial concentrations in the adipose tissue. The ethanol ratio (ratio of ethanol concentration in dialysate to ethanol concentration in perfusate) was measured as an indicator of adipose tissue blood flow. For abdominal subcutaneous adipose tissue microdialysate data (ethanol ratio, dialysate lactate, dialysate glucose, and plasma glycerol, glycerol, NEFA, glucose, insulin, adrenalin, and noradrenalin) at rest, data was analyzed using repeated measures analysis on log transformed values with treatment, visit, time and treatment*visit*time interaction as fixed effects.

[3] = system: patients with mild-to-moderate hypertension and abdominal adiposity; assay: Energy expenditure and substrate oxidation by indirect calorimetry; format: in vivo, human; conditions: LCZ696 400 mg QD or amlodipine 10 mg QD; for Respiratory quotient (carbon dioxide to oxygen ratio), Day 57 adjusted mean (95% CI): Day 57, at rest
Protocol: as §1
Energy expenditure and substrate oxidation were assessed in parallel by indirect calorimetry using a ventilated hood system. The ventilated hood measurements were recorded for 30 minutes in the resting state (during the flow calibration phase).

[4] = system: patients with mild-to-moderate hypertension and abdominal adiposity; assay: Blood pressure monitoring (mean seated BP); format: in vivo, human; conditions: Day 57 vs baseline; LCZ696 400 mg QD or amlodipine 10 mg QD
Excerpt: Seating BP was monitored at screening and throughout the study using the same equipment. During the home stay period, patients were given a home measurement device and instructed to monitor BP twice weekly at approximately the same time each morning (7-9 AM).

[5] = system: patients with mild-to-moderate hypertension and abdominal adiposity; assay: Safety assessments (adverse events); format: in vivo, human; conditions: for Discontinuations due to AEs: LCZ696 N = 50, amlodipine N = 48
Protocol: Safety assessments included adverse events (AEs) and serious adverse events (SAEs) and were conducted throughout the study by regular monitoring of hematology, blood chemistry and urine analysis as well as assessments of vital signs (BP and pulse measurements), ECG, physical condition and body weight. The pharmacodynamics (PD) analysis set included all patients with available PD data and no protocol deviations with relevant impact on PD data. The safety analysis set included all patients who received any of the study drugs.

[6] = system: patients with mild-to-moderate hypertension and abdominal adiposity; assay: Abdominal subcutaneous adipose tissue microdialysis (local lipolysis); format: in vivo, human
[7] = system: patients with impaired glucose tolerance and cardiovascular disease or risk factors; conditions: valsartan for 5 years, along with lifestyle modification; cited from earlier work
[8] = LCZ696 400 mg QD or amlodipine 10 mg QD
[9] = LCZ696 400 mg QD or amlodipine 10 mg QD, listed as AML
[10] = baseline to Day 56, LCZ696 400 mg QD or amlodipine 10 mg QD, 8 weeks
[11] = safety analysis set, 8-week treatment
[12] = 15 min exercise, p=0.014 between groups
[13] = 30 min exercise, p=0.010 between groups

## CCOC(=O)C1=C(COCCN)NC(C)=C(C(=O)OC)C1c1ccccc1Cl (stereo not drawn) [Amlodipine, reference compound]
[1]; [8]
  Glucose infusion rate by body weight (Mbw), Day 56, adjusted mean: 3.87 mg/(min * kg)
  Insulin sensitivity index, Day 56, adjusted mean: 1.75 μg/kg * min/(mmol/L * pmol/L)
[1]; [9]
  Glucose infusion rate by body weight (Mbw), Day 56, adjusted mean: 3.88 mg/(min * kg)
  Insulin sensitivity index, Day 56, adjusted mean: 1.76 μg/kg * min/(mmol/L * pmol/L)
[1]; [10]
  Glucose infusion rate by body weight (Mbw), adjusted mean change from baseline: 0.03 mg/(min * kg)
  Insulin sensitivity index, adjusted mean change from baseline: 0.065 μg/kg * min/(mmol/L * pmol/L)
[1]; baseline to Day 56, LCZ696 400 mg QD or amlodipine 10 mg QD, 8 weeks, listed as amlodipine
  Insulin sensitivity index, adjusted mean change from baseline: +0.065 μg/kg * min/(mmol/L * pmol/L)
[2]; 30 + 45 min combined, (95% CI)
  Glucose in adipose tissue microdialysate, adjusted geometric mean ratio Day 57 vs Day 1: 0.99 (0.85; 1.16)
  Lactate in adipose tissue microdialysate, adjusted geometric mean ratio Day 57 vs Day 1: 0.90 (0.70; 1.16)
[2]; 30 + 45 min time points combined, (95% CI)
  Glycerol (free) in adipose tissue microdialysate, adjusted geometric mean ratio Day 57 vs Day 1: 0.86 (0.75; 0.97)
[2]; 30 min time point, (95% CI)
  Glycerol (free) in adipose tissue microdialysate, adjusted geometric mean ratio Day 57 vs Day 1: 0.87 (0.76; 0.99)
  Glucose in adipose tissue microdialysate, adjusted geometric mean ratio Day 57 vs Day 1: 1.00 (0.85; 1.16)
  Lactate in adipose tissue microdialysate, adjusted geometric mean ratio Day 57 vs Day 1: 0.91 (0.69; 1.19)
[2]; 45 min time point, (95% CI)
  Glycerol (free) in adipose tissue microdialysate, adjusted geometric mean ratio Day 57 vs Day 1: 0.85 (0.74; 0.98)
  Glucose in adipose tissue microdialysate, adjusted geometric mean ratio Day 57 vs Day 1: 0.98 (0.83; 1.16)
  Lactate in adipose tissue microdialysate, adjusted geometric mean ratio Day 57 vs Day 1: 0.90 (0.70; 1.16)
[2]
  interstitial glycerol levels at week 8 (subcutaneous adipose tissue lipolysis at rest): 63.99 µmol/L
[3]
  Respiratory quotient (carbon dioxide to oxygen ratio), Day 57 adjusted mean (95% CI): 0.77 (0.746; 0.804)
  Resting energy expenditure, Day 57 adjusted mean (95% CI): 1991.4 (1904.82; 2078.01) kcal
[4]
  mean reduction in msDBP (mean seated diastolic blood pressure): −10.0±7.8 mmHg
  mean reduction in msSBP (mean seated systolic blood pressure): −12.4±14.7 mmHg
[5]; 8-week treatment
  Discontinuations due to AEs: three
[5]; [11]
  AEs suspected to be study drug related: 46%
  Peripheral edema reported: 16 patients
  overall incidence of AEs: 77.1%
[6]; [12]
  microdialysate glycerol at week 8: 128.8 µmol/L
[6]; [13]
  microdialysate glycerol at week 8: 149.19 µmol/L

## CCCCC(=O)N(Cc1ccc(-c2ccccc2-c2nn[n-]n2)cc1)C(C(=O)[O-])C(C)C.CCOC(=O)C(C)CC(Cc1ccc(-c2ccccc2)cc1)NC(=O)CCC(=O)[O-].[Na+].[Na+].[Na+] [LCZ696, trisodium [3-((1S,3R)-1-biphenyl-4-ylmethyl-3-ethoxycarbonyl-1-butylcarbamoyl)propionate-(S)-3′-methyl-2′-(pentanoyl{2″-(tetrazol-5-ylate)biphenyl-4′-ylmethyl}amino)butyrate] hemipentahydrate]
[1]; [8]
  Glucose infusion rate by body weight (Mbw), Day 56, adjusted mean: 4.49 mg/(min * kg)
  Insulin sensitivity index, Day 56, adjusted mean: 1.88 μg/kg * min/(mmol/L * pmol/L) and 1.86 μg/kg * min/(mmol/L * pmol/L)
[1]; Day 56, LCZ696 400 mg QD or amlodipine 10 mg QD
  Metabolic clearance rate, Day 56, adjusted mean: 79.07 mmol·min
[1]; difference in adjusted mean change from baseline to Day 56 (95% CI), not statistically significant
  Insulin sensitivity index, Treatment Difference (LCZ696-Amlodipine): 0.128 (−0.155; 0.410) μg/kg * min/(mmol/L * pmol/L)
[1]; difference in adjusted mean change from baseline to Day 56 (95% CI), p = 0.016
  Glucose infusion rate by body weight (Mbw), Treatment Difference (LCZ696-Amlodipine): 0.61 (0.12; 1.11) mg/(min * kg)
[1]; difference in adjusted mean change from baseline to Day 56 (95% CI), p = 0.0312
  Metabolic clearance rate, Treatment Difference (LCZ696-Amlodipine): 9.66 (0.89; 18.42) min * mmol
[2]; 30 + 45 min combined, (95% CI)
  Glucose in adipose tissue microdialysate, adjusted geometric mean ratio Day 57 vs Day 1: 1.02 (0.88; 1.18)
  Lactate in adipose tissue microdialysate, adjusted geometric mean ratio Day 57 vs Day 1: 0.84 (0.66; 1.06)
  Glucose, Treatment differences, ratio of GMR (LCZ696 vs amlodipine): 1.03 (0.83; 1.27)
  Lactate, Treatment differences, ratio of GMR (LCZ696 vs amlodipine): 0.93 (0.65; 1.31)
[2]; 30 min time point, (95% CI)
  Glycerol (free) in adipose tissue microdialysate, adjusted geometric mean ratio Day 57 vs Day 1: 1.02 (0.90; 1.16)
  Glucose in adipose tissue microdialysate, adjusted geometric mean ratio Day 57 vs Day 1: 1.03 (0.86; 1.20)
  Lactate in adipose tissue microdialysate, adjusted geometric mean ratio Day 57 vs Day 1: 0.81 (0.63; 1.04)
  Glucose, Treatment differences, ratio of GMR (LCZ696 vs amlodipine): 1.03 (0.82; 1.29)
  Glycerol (free), Treatment differences, ratio of GMR (LCZ696 vs amlodipine): 1.18 (0.96; 1.43)
  Lactate, Treatment differences, ratio of GMR (LCZ696 vs amlodipine): 0.89 (0.62; 1.29)
[2]; 45 min time point, (95% CI)
  Glycerol (free) in adipose tissue microdialysate, adjusted geometric mean ratio Day 57 vs Day 1: 1.07 (0.94; 1.22)
  Glucose in adipose tissue microdialysate, adjusted geometric mean ratio Day 57 vs Day 1: 1.01 (0.86; 1.18)
  Lactate in adipose tissue microdialysate, adjusted geometric mean ratio Day 57 vs Day 1: 0.86 (0.68; 1.09)
  Glucose, Treatment differences, ratio of GMR (LCZ696 vs amlodipine): 1.03 (0.82; 1.29)
  Lactate, Treatment differences, ratio of GMR (LCZ696 vs amlodipine): 0.96 (0.68; 1.36)
[2]; LCZ696 vs amlodipine, any time point except 45 minute time point in the LCZ696 group (small, not considered relevant)
  change in ethanol ratio (indicator of adipose tissue blood flow), between treatment groups: No significant differences
[2]
  interstitial glycerol levels at week 8 (subcutaneous adipose tissue lipolysis at rest): 80.53 µmol/L
[3]
  Respiratory quotient (carbon dioxide to oxygen ratio), Day 57 adjusted mean (95% CI): 0.78 (0.760; 0.814)
  Resting energy expenditure, Day 57 adjusted mean (95% CI): 1960.1 (1879.42; 2040.90) kcal
[4]
  mean reduction in msDBP (mean seated diastolic blood pressure): −12.4±9.1 mmHg
  mean reduction in msSBP (mean seated systolic blood pressure): −21.0±16.1 mmHg
[5]; 8-week treatment
  Discontinuations due to AEs: two
[5]; both resolved by the end of the study, suspected to be related to study drug
  mild orthostatic hypertension reported: Two
[5]; [11]
  AEs suspected to be study drug related: 24%
  Peripheral edema reported: one
  Pruritus reported: five
  overall incidence of AEs: 60.0%
[6]; [12]
  microdialysate glycerol at week 8: 153.1 µmol/L
[6]; [13]
  microdialysate glycerol at week 8: 187.63 µmol/L

## CCCCC(=O)N(Cc1ccc(-c2ccccc2-c2nnn[nH]2)cc1)[C@H](C(=O)O)C(C)C [valsartan, S—N-valeryl-N-{[2′-(1H-tetrazole-5-yl)-biphenyl-4-yl]-methyl}-valine]
[7]
  relative reduction in the incidence of diabetes: 14%
